Where a name gives a salt, the structure may show the parent alone. Read-outs that look alike come from different tables or passages of the source.
Assays:
[1] = system: MOLM-14 (expressing FLT3/ITD mutant gene and wild-type FLT3 gene); test: Cell proliferation, Cell Titer-Glo, MOLM-14; format: cell-based; settings: Homo sapiens
Summary of the method: (§1)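 Read-out: luminescence from ATP in live cells (CellTiter-Glo), taken as viable cell number. Cell lines were built in-house.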

[2] = system: pro-B cell BaF3; test: Cell proliferation, Cell Titer-Glo, BaF3; format: cell-based; settings: Mus musculus, incubated for 72 hours
Summary of the method: (§2)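 Cells from the in-house-constructed BaF3 lines were grown with compound. Viability was then scored by chemiluminescent detection of cellular ATP.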

[3] = system: TEL-cKIT-BaF3 (stably expressing cKIT kinase); test: Cell proliferation, Cell Titer-Glo, TEL-cKIT-BaF3; format: cell-based; settings: Mus musculus; incubated for 72 hours
Summary of the method: as §2

[4] = system: MV4-11 (expressing FLT3/ITD mutant gene); test: Cell proliferation, Cell Titer-Glo, MV4-11; format: cell-based; settings: Homo sapiens
Summary of the method: as §1

[5] = system: TPR-MET-BaF3 (stably expressing MET kinase); test: Cell proliferation, Cell Titer-Glo, TPR-MET-BaF3; format: cell-based; settings: Mus musculus; incubated for 72 hours
Summary of the method: as §2

[6] = system: BaF3-FLT3-ITD-D835Y (stably expressing FLT3/ITD D835Y mutant activated kinase); test: Cell proliferation, Cell Titer-Glo, BaF3-FLT3-ITD-D835Y; format: cell-based; settings: Mus musculus
Experimental: (§3) The above cell lines were constructed by our laboratory.
(§4) The number of viable cells was determined by quantification of ATP in living cells using the Cell Titer-Glo® (Promega, USA) chemiluminescence cell viability assay kit.

[7] = system: BaF3-FLT3-ITD-F691L (stably expressing FLT3/ITD F691L mutant activated kinase); test: Cell proliferation, Cell Titer-Glo, BaF3-FLT3-ITD-F691L; format: cell-based; settings: Mus musculus
Experimental: as §3, §4

[8] = system: MV4-11 cell lines; test: Cell apoptosis, Western Blot of PARP and Caspase 3 cleavage, MV4-11; format: cell-based, human; settings: MV 4-11, 0.03 μM, after 24 hours
Description: (§5) Western Blot was used to detect the effects of different concentrations of drugs on protein cleavage of DNA repair enzyme, poly ADP-ribose polymerase PARP and cysteinyl aspartate specific proteinase Caspase 3 at different time intervals (FIG. 3).

[9] = system: Signaling pathways of FLT3 in MV4-11 and MOLM-14 cell lines; test: Effects on upstream and downstream signaling pathways of FLT3 in cells; format: cell-based, human; settings: for efficacy compared with Control Compound AC220: AC220 at 0.1 μM; for C-Myc (degradation; for AC220 phosphorylation) / phosphorylation of STAT5 / phosphorylation of protein kinase FLT3: treated for 4 hours
[10] = system: MOLM-13 cell lines; test: Cell apoptosis, Western Blot of PARP and Caspase 3 cleavage, MOLM-13; format: cell-based, human; settings: MOLM-13, 0.1 μM, after 24 hours
Description: as §5

[11] = system: TEL-BaF3-FLT3/ITD (stably expressing FLT3/ITD mutant activated kinase); test: Cell proliferation, Cell Titer-Glo, TEL-BaF3-FLT3/ITD; format: cell-based, mouse; settings: Mus musculus, 72 h
Summary of the method: as §2

[12] = system: TEL-BaF3-BMX (stably expressing BMX kinase); test: Cell proliferation, Cell Titer-Glo, TEL-BaF3-BMX; format: cell-based; settings: Mus musculus; incubated for 72 hours
Summary of the method: as §2

[13] = system: TEL-FLT3-BaF3 (stably expressing FLT3 kinase); test: Cell proliferation, Cell Titer-Glo, TEL-FLT3-BaF3; format: cell-based; settings: Mus musculus
Experimental: as §3, §4

[14] = system: TEL-BaF3-BLK (stably expressing BLK kinase); test: Cell proliferation, Cell Titer-Glo, TEL-BaF3-BLK; format: cell-based; settings: Mus musculus; incubated for 72 hours
Summary of the method: as §2

[15] = system: TEL-BaF3-FLT3-D835Y (stably expressing FLT3 D835Y mutant activated kinase); test: Cell proliferation, Cell Titer-Glo, TEL-BaF3-FLT3-D835Y; format: cell-based; settings: Mus musculus
Summary of the method: as §2

[16] = system: U937 (expressing wild-type FLT3 gene); test: Cell proliferation, Cell Titer-Glo, U937; format: cell-based, human; settings: Homo sapiens, U-937, 72 h
Summary of the method: as §1

[17] = system: MV4-11 cell lines carrying FLT3/ITD mutant gene; test: Cell cycle distribution by flow cytometry; format: cell-based, human; settings: MV4-11, 0.1 μM, 24 hours
[18] = target: BTK protein kinase (Homo sapiens (Human), UniProt Q06187); test: In vitro inhibition activity (enzymatic activity), ADP-Glo, BTK; format: biochemical; settings: ATP 10 μM
Sequence of BTK protein kinase (Q06187 whole entry): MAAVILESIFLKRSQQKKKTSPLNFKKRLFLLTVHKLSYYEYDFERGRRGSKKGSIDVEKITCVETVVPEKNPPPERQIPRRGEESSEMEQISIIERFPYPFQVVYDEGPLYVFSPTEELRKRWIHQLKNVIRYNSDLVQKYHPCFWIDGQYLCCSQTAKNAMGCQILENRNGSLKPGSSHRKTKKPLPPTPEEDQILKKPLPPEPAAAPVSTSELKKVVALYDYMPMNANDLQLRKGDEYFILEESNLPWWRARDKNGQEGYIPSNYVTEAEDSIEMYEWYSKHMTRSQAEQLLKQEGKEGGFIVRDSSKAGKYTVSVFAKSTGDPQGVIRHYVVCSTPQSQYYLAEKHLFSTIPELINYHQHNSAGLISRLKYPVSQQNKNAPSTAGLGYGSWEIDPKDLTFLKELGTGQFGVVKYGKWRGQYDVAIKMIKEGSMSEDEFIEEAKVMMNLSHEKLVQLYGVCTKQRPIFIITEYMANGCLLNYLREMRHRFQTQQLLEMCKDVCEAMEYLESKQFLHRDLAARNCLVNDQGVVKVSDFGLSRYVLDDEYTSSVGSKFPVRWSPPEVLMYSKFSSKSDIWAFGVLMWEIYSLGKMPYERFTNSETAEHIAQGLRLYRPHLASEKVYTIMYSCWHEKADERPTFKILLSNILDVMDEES

[19] = system: MOLM-13 (expressing FLT3/ITD mutant gene and wild-type FLT3 gene); test: Cell proliferation, Cell Titer-Glo, MOLM-13; format: cell-based; settings: Homo sapiens
Summary of the method: as §1

[20] = system: MOLM-14 cells; test: Nude mouse subcutaneous tumor model with MOLM-14 cells; format: in vivo; settings: oral gavage
Experimental: More than 30 mice (5-week-old) (Balb/c-nu female mice, purchased from Shanghai Snake Experimental Animal Co., Ltd.) were inoculated subcutaneously with MOLM-14 cells in 1×10^7 cells/mouse, the changes in body weight and tumor volume were recorded daily (tumor volume=Tumor length×tumor width^2/2).

[21] = system: TEL-BaF3-EGFR (stably expressing EGFR kinase); test: Cell proliferation, Cell Titer-Glo, TEL-BaF3-EGFR; format: cell-based; settings: Mus musculus; incubated for 72 hours
Experimental: as §3, §4

[22] = MOLM-14, 72 h, read-out: MOLM-14 IC50 [μM]
[23] = MV4-11, 72 h, read-out: MV4-11 IC50 [μM]
[24] = 72 h, read-out: BaF3-FLT3-ITD-D835Y IC50 [μM]
[25] = 72 h, read-out: BaF3-FLT3-ITD-F691L IC50 [μM]
[26] = 72 h, read-out: TEL-FLT3-BaF3 IC50 [μM]
[27] = 72 h, read-out: TEL-BaF3-FLT3-D835Y IC50 [μM]
[28] = read-out: U937 IC50 [μM], incubated for 72 hours
[29] = MOLM-14, incubated for 72 hours, read-out: MOLM-14 IC50
[30] = MV4-11, incubated for 72 hours, read-out: MV4-11 IC50
[31] = incubated for 72 hours, read-out: BaF3-FLT3-ITD-D835Y IC50
[32] = incubated for 72 hours, read-out: BaF3-FLT3-ITD-F691L IC50
[33] = incubated for 72 hours, read-out: TEL-FLT3-BaF3 IC50
[34] = incubated for 72 hours, read-out: U937 IC50

| IC50 [1, 22] [µM] | IC50 [2] [nM] | IC50 [3] [nM] | IC50 [4, 23] [µM] | IC50 [5] [nM] | IC50 [6, 24] [µM] | IC50 [7, 25] [µM] | IC50 [12] [nM] | IC50 [13, 26] [µM] | IC50 [14] [nM] | IC50 [15, 27] [µM] | IC50 [16, 28] [µM] | Compound | efficacy compared with Control Compound AC220 [9] | C-Myc (degradation; for AC220 phosphorylation) [9] | phosphorylation of STAT5 [9] | phosphorylation of protein kinase FLT3 [9] | IC50 [1, 29] [µM] | IC50 [4, 30] [µM] | IC50 [18] [nM] | IC50 [6, 31] [µM] | other results |
| --- | --- | --- | --- | --- | --- | --- | --- | --- | --- | --- | --- | --- | --- | --- | --- | --- | --- | --- | --- | --- | --- |
| 0.002 | 750 | 6100 | 0.01 | 2900 | 0.28 | 0.43 | 63 | 0.013 | 3 | 0.002 | 3.3 | CC(C)C[C@@H](N)C(=O)N[C@H]1CC[C@@H](n2nc(-c3ccc(Oc4ccccc4)cc3)c3c(N)ncnc32)CC1.Cl (stereo in doubt) [Compound 84, (R)-2-amino-N-(4-(4-amino-3-(4-phenoxyphenyl)-1H-pyrazolo[3,4-d]pyrimidin-1-yl)cis-1,4-cyclohexyl)-4-methylpentanamide hydrochloride] | better efficacy | significant effects on the degradation | very strong inhibitory effects | strongly inhibited | – | – | – | – | cleavage of Caspase 3 [8]: cleavage; cleavage of poly ADP-ribose polymerase PARP [8]: relatively significant cleavage; cleavage of Caspase 3 [10]: very significant cleavage; cleavage of poly ADP-ribose polymerase PARP [10]: very significant cleavage; IC50 ([11]; read-out: TEL-BaF3-FLT3/ITD IC50 [μM], incubated for 72 hours): < 0.0003 µM; number of cells captured in G0-G1 phase [17]: 89.92% |
| 0.0084 | 2200 | – | 0.0016 | – | 0.073 | 0.067 | 52 | 0.0081 | 2.6 | 0.021 | 3.4 | CC(C)C[C@@H](N)C(=O)NC1CCC(n2nc(-c3ccc(Oc4ccccc4)cc3)c3c(N)ncnc32)CC1.Cl (stereo partly drawn) [Compound 77, (R)-2-amino-N-(4-(4-amino-3-(4-phenoxyphenyl)-1H-pyrazolo[3,4-d]pyrimidin-1-yl)cyclohexyl)-4-methylpentanamide hydrochloride] | better efficacy | significant effects on the degradation | very strong inhibitory effects | strongly inhibited | – | – | 128 | – | IC50 ([19]; MOLM-13, 72 h, read-out: MOLM-13 IC50 [μM]): 0.0027 µM; tumor volume growth of the mice ([20]; 25 mg/kg/day): significantly slowed down; growth of the tumors of the mice ([20]; 50.0 mg/kg/day): almost no growth; tumor growth of the mice ([20]; 12.5-50 mg/kg, 2 to 3 weeks): significantly inhibited; IC50 ([11]; incubated for 72 hours, read-out: TEL-BaF3-FLT3/ITD IC50): < 0.0003 µM |
| – | – | 270 | – | 3300 | – | – | < 0.3 | – | 1 | – | – | CC(C)[C@@H](N)C(=O)NC1CCC(n2nc(-c3ccc(Oc4ccccc4)cc3)c3c(N)ncnc32)CC1 (stereo partly drawn) [Compound 86, (R)-2-amino-N-(4-(4-amino-(4-phenoxyphenyl)-1H-pyrazolo[3,4-d]pyrimidin-1-yl)cyclohexyl)-3-methylbutanamide hydrochloride] | – | – | – | – | 0.005 | 0.02 | – | 0.006 | IC50 ([19]; MOLM-13, incubated for 72 hours, read-out: MOLM-13 IC50): 0.001 µM; IC50 [7, 32]: 0.15 µM; IC50 [13, 33]: 0.004 µM; IC50 [21]: 1300 nM; IC50 [16, 34]: 1.4 µM |

| Compound | IC50 [1, 22] [µM] | IC50 [2] [nM] | IC50 [3] [nM] | IC50 [4, 23] [µM] | IC50 [5] [nM] | IC50 [6, 24] [µM] | IC50 [7, 25] [µM] | IC50 [12] [nM] | IC50 [13, 26] [µM] | IC50 [14] [nM] | IC50 [15, 27] [µM] | IC50 [16, 28] [µM] | efficacy compared with Control Compound AC220 [9] | C-Myc (degradation; for AC220 phosphorylation) [9] | phosphorylation of STAT5 [9] | phosphorylation of protein kinase FLT3 [9] | IC50 [1, 29] [µM] | IC50 [4, 30] [µM] | IC50 [18] [nM] | IC50 [6, 31] [µM] | other results |
| --- | --- | --- | --- | --- | --- | --- | --- | --- | --- | --- | --- | --- | --- | --- | --- | --- | --- | --- | --- | --- | --- |
| CN(C)CC(=O)NC1CCC(n2nc(-c3ccc(Oc4ccccc4)cc3)c3c(N)ncnc32)CC1 (stereo not shown) [Compound 76, N-(4-(4-amino-3-(4-phenoxyphenyl)-1H-pyrazolo[3,4-d]pyrimidin-1-yl)cyclohexyl)-2-(dimethylamino)acetamide] | – | 4200 | 430 | – | – | – | – | 120 | – | 30 | – | – | – | – | – | – | 0.036 | 0.027 | 388 | 0.13 | IC50 [7, 32]: 0.18 µM; IC50 ([11]; read-out: TEL-BaF3-FLT3/ITD IC50 [μM]): 0.0067 µM; IC50 [13, 33]: 0.042 µM; IC50 ([15]; incubated for 72 hours, read-out: TEL-BaF3-FLT3-D835Y IC50): 0.023 µM; IC50 [16, 34]: > 10 µM |

— patent US10266535B2, “Inhibitor of FLT3 kinase and use thereof” (HEFEI INSTITUTES OF PHYSICAL SCIENCE, CHINESE ACADEMY OF …, priority 2015, dated 2019)
